Where a name gives a salt, the structure may show the parent alone.
Key:
[1] = tested on: Staphylococcus aureus MW2 delta-mecA (mecA-); assay: IC50 (growth, competition assay); conditions: cefoxitin: subinhibitory
Procedure, shortened: (§1)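 Signals from DsRed (540/590) and GFP (485/520) were scaled on every plate between single-strain control medians, with No Treatment then set to 0.5. The cells were a 1:1 mix of pre-induced fluorescent S. aureus MW2 strains with and without the resistance gene, grown unshaken for 20 h at 37 °C and 90% humidity in LB in 1536-well plates under a subinhibitory drug dose set each day. Each strain's IC50 was defined as the dose halving the No Treatment signal, or the maximal signal.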

[2] = tested on: Staphylococcus aureus MW2 (mecA+); assay: IC50 (growth, competition assay); conditions: cefoxitin: subinhibitory
Procedure, shortened: as §1

Clc1ccc(C(Cn2ccnc2)OCc2ccsc2Cl)c(Cl)c1 (stereo not drawn) [Tioconazole]
IC50 ([1]; fluorescent label: DsRed): 3.9 µM | IC50 ([1]; fluorescent label: GFP): 14.2 µM | IC50 ([2]; fluorescent label: DsRed): 29.7 µM | IC50 ([2]; fluorescent label: GFP): 17.8 µM

CCCCc1oc2ccc(NS(C)(=O)=O)cc2c1C(=O)c1ccc(OCCCN(CCCC)CCCC)cc1 [Dronedarone HCl (Multaq)]
IC50 ([1]; fluorescent label: DsRed): 5.95 µM | IC50 ([1]; fluorescent label: GFP): 3.07 µM | IC50 ([2]; fluorescent label: DsRed): 14.3 µM | IC50 ([2]; fluorescent label: GFP): 14.9 µM

Cc1cc(Nc2nc(N[C@@H](C)c3ccc(F)cc3)c(C#N)cc2F)n[nH]1 [AZ 960]
IC50 ([1]; fluorescent label: DsRed): 2.4 µM | IC50 ([1]; fluorescent label: GFP): 1.67 µM | IC50 ([2]; fluorescent label: DsRed): 110 µM | IC50 ([2]; fluorescent label: GFP): 112 µM

CO[C@H]1C[C@H](O[C@H]2[C@H](C)[C@@H](O[C@@H]3O[C@H](C)C[C@H](N(C)C)[C@H]3OC(C)=O)[C@@H](C)C[C@@]3(CO3)C(=O)[C@H](C)[C@@H](OC(C)=O)[C@@H](C)[C@@H](C)OC(=O)[C@@H]2C)O[C@@H](C)[C@@H]1OC(C)=O [EVRAMYCIN]
IC50 ([1]; fluorescent label: DsRed): < 9.85 µM | IC50 ([1]; fluorescent label: GFP): < 9.85 µM | IC50 ([2]; fluorescent label: DsRed): 33.7 µM | IC50 ([2]; fluorescent label: GFP): 27.8 µM

Cc1cc(C(C#N)c2ccc(Cl)cc2)c(Cl)cc1NC(=O)c1cc(I)cc(I)c1O (stereo not drawn) [FLUKIVER]
IC50 ([1]; fluorescent label: DsRed): < 9.85 µM | IC50 ([1]; fluorescent label: GFP): < 9.85 µM | IC50 ([2]; fluorescent label: DsRed): < 9.85 µM | IC50 ([2]; fluorescent label: GFP): < 9.85 µM

COc1cc2ncnc(Nc3ccc(Oc4ccccc4)cc3)c2cc1OC [Src I1]
IC50 ([1]; fluorescent label: DsRed): 30.6 µM | IC50 ([1]; fluorescent label: GFP): 25.3 µM | IC50 ([2]; fluorescent label: DsRed): 29 µM | IC50 ([2]; fluorescent label: GFP): 30.7 µM

CNc1nc(-c2ccc3c(N)n[nH]c3c2)cc(N2C[C@@H](C(=O)NC3CCCCC3)CC[C@H]2C)n1
IC50 ([1]; fluorescent label: DsRed): 51.4 µM | IC50 ([1]; fluorescent label: GFP): 26.4 µM | IC50 ([2]; fluorescent label: DsRed): 111 µM | IC50 ([2]; fluorescent label: GFP): 111 µM

CC(=O)[C@H]1CC[C@H]2[C@@H]3CC=C4C[C@@H](OC(=O)CCC(=O)O)CC[C@]4(C)[C@H]3CC[C@]12C [FORMULA-405]
IC50 ([1]; fluorescent label: DsRed): 18.1 µM | IC50 ([1]; fluorescent label: GFP): 17.7 µM | IC50 ([2]; fluorescent label: DsRed): 18.1 µM | IC50 ([2]; fluorescent label: GFP): 35 µM

Oc1ccc(Cl)cc1Cc1cc(Cl)ccc1O [DICHLOROPHEN]
IC50 ([1]; fluorescent label: DsRed): < 9.85 µM | IC50 ([1]; fluorescent label: GFP): < 9.85 µM | IC50 ([2]; fluorescent label: DsRed): < 9.85 µM | IC50 ([2]; fluorescent label: GFP): < 9.85 µM

O=C(N[C@@H](Cc1ccccc1)C(=O)CCl)OCc1ccccc1 [Z-L-Phe chloromethyl ketone]
IC50 ([1]; fluorescent label: DsRed): < 9.85 µM | IC50 ([1]; fluorescent label: GFP): < 9.85 µM | IC50 ([2]; fluorescent label: DsRed): < 9.85 µM | IC50 ([2]; fluorescent label: GFP): < 9.85 µM

CCOC(=O)CCC(=O)O[C@H]1[C@H](O[C@@H]2[C@@H](C)[C@H](O[C@H]3C[C@@](C)(OC)[C@@H](O)[C@H](C)O3)[C@@H](C)C(=O)O[C@H](CC)[C@@](C)(O)[C@H](O)[C@@H](C)C(=O)[C@H](C)C[C@@]2(C)O)O[C@H](C)C[C@@H]1N(C)C [ERYPED]
IC50 ([1]; fluorescent label: DsRed): < 9.85 µM | IC50 ([1]; fluorescent label: GFP): < 9.85 µM | IC50 ([2]; fluorescent label: DsRed): < 9.85 µM | IC50 ([2]; fluorescent label: GFP): < 9.85 µM

O=C(/C=C/c1ccccc1)c1ccc(O)cc1 [4'-HYDROXYCHALCONE]
IC50 ([1]; fluorescent label: DsRed): 19.7 µM | IC50 ([1]; fluorescent label: GFP): 19.6 µM | IC50 ([2]; fluorescent label: DsRed): 77.3 µM | IC50 ([2]; fluorescent label: GFP): 101 µM

Cn1cncc1[C@@](N)(c1ccc(Cl)cc1)c1ccc2c(c1)c(-c1cccc(Cl)c1)cc(=O)n2C [Tipifarnib (Zarnestra)]
IC50 ([1]; fluorescent label: DsRed): < 9.85 µM | IC50 ([1]; fluorescent label: GFP): 11.3 µM | IC50 ([2]; fluorescent label: DsRed): 29.6 µM | IC50 ([2]; fluorescent label: GFP): 15.1 µM

C[C@@H]1CN(c2c(F)c(F)c3c(=O)c(C(=O)O)cn(C4CC4)c3c2F)C[C@H](C)N1 [ORBAX]
IC50 ([1]; fluorescent label: DsRed): 17.8 µM | IC50 ([1]; fluorescent label: GFP): < 9.85 µM | IC50 ([2]; fluorescent label: DsRed): < 9.85 µM | IC50 ([2]; fluorescent label: GFP): 15.1 µM

O=C(Nc1cccc(C(F)(F)F)c1)Nc1cc(S(=O)(=O)NC2CC2)ccc1-c1ccsc1 [AGI-6780]
IC50 ([1]; fluorescent label: DsRed): 18.5 µM | IC50 ([1]; fluorescent label: GFP): 11.6 µM | IC50 ([2]; fluorescent label: DsRed): 33.7 µM | IC50 ([2]; fluorescent label: GFP): 36.9 µM

OCCN1CCN(CCCN2c3ccccc3Sc3ccc(Cl)cc32)CC1 [Perphenazine]
IC50 ([1]; fluorescent label: DsRed): 27.1 µM | IC50 ([1]; fluorescent label: GFP): 21.1 µM | IC50 ([2]; fluorescent label: DsRed): 70.8 µM | IC50 ([2]; fluorescent label: GFP): 65.7 µM

CC(C)c1nc(CN(C)C(=O)N[C@@H](CCN2CCOCC2)C(=O)N[C@H](CC[C@H](Cc2ccccc2)NC(=O)OCc2cncs2)Cc2ccccc2)cs1 [Cobicistat (GS-9350)]
IC50 ([1]; fluorescent label: DsRed): 29.4 µM | IC50 ([1]; fluorescent label: GFP): 27.6 µM | IC50 ([2]; fluorescent label: DsRed): 109 µM | IC50 ([2]; fluorescent label: GFP): 107 µM

CCn1cc(C(=O)O)c(=O)c2cc(F)c(N3CCNCC3)nc21 [PENETREX]
IC50 ([1]; fluorescent label: DsRed): < 9.85 µM | IC50 ([1]; fluorescent label: GFP): < 9.85 µM | IC50 ([2]; fluorescent label: DsRed): < 9.85 µM | IC50 ([2]; fluorescent label: GFP): < 9.85 µM

O=C(CCCCCN1CCN(c2ccccc2-c2ccccc2)CC1)NC1CCCc2ccccc21 (stereo not drawn) [LP 12 hydrochloride hydrate]
IC50 ([1]; fluorescent label: DsRed): < 9.85 µM | IC50 ([1]; fluorescent label: GFP): < 9.85 µM | IC50 ([2]; fluorescent label: DsRed): 17.2 µM | IC50 ([2]; fluorescent label: GFP): 23.3 µM

CN[C@H](CC(C)C)C(=O)N[C@H]1C(=O)N[C@@H](CC(N)=O)C(=O)N[C@H]2C(=O)N[C@H]3C(=O)N[C@H](C(=O)N[C@H](C(=O)O)c4cc(O)cc(O)c4-c4cc3ccc4O)[C@H](O)c3ccc(c(Cl)c3)Oc3cc2cc(c3O[C@@H]2O[C@H](CO)[C@@H](O)[C@H](O)[C@H]2O[C@H]2C[C@](C)(N)[C@H](O)[C@H](C)O2)Oc2ccc(cc2Cl)[C@H]1O [VANCOCIN]
IC50 ([1]; fluorescent label: DsRed): < 9.85 µM | IC50 ([1]; fluorescent label: GFP): < 9.85 µM | IC50 ([2]; fluorescent label: DsRed): < 9.85 µM | IC50 ([2]; fluorescent label: GFP): < 9.85 µM

CCn1cc(C(=O)O)c(=O)c2cnc(N3CCNCC3)nc21 [PIPEDAC]
IC50 ([1]; fluorescent label: DsRed): 64.9 µM | IC50 ([1]; fluorescent label: GFP): 36.5 µM | IC50 ([2]; fluorescent label: DsRed): 38 µM | IC50 ([2]; fluorescent label: GFP): 60.4 µM

COc1c(N2C[C@@H]3CCCN[C@@H]3C2)c(F)cc2c(=O)c(C(=O)O)cn(C3CC3)c12 [Moxifloxacin hydrochloride]
IC50 ([1]; fluorescent label: DsRed): < 0.498 µM | IC50 ([1]; fluorescent label: GFP): < 0.498 µM | IC50 ([2]; fluorescent label: DsRed): < 0.498 µM | IC50 ([2]; fluorescent label: GFP): < 0.498 µM

CC(C)(O)CC(=O)NCCn1ccc2ncnc(Nc3ccc(Oc4cccc(C(F)(F)F)c4)c(Cl)c3)c21 [TAK-285]
IC50 ([1]; fluorescent label: DsRed): < 9.85 µM | IC50 ([1]; fluorescent label: GFP): < 9.85 µM | IC50 ([2]; fluorescent label: DsRed): 26.6 µM | IC50 ([2]; fluorescent label: GFP): 28.3 µM

C=CC1=C(C(=O)O)N2C(=O)[C@@H](NC(=O)/C(=N\O)c3csc(N)n3)[C@H]2SC1 [OMNICEF]
IC50 ([1]; fluorescent label: DsRed): < 9.85 µM | IC50 ([1]; fluorescent label: GFP): < 9.85 µM | IC50 ([2]; fluorescent label: DsRed): < 9.85 µM | IC50 ([2]; fluorescent label: GFP): < 9.85 µM

C=C1c2c(Cl)ccc(O)c2C(=O)C2=C(O)[C@]3(O)C(=O)C(C(N)=O)=C(O)[C@@H](N(C)C)[C@@H]3[C@@H](O)[C@H]12.O=C(O)c1cc(S(=O)(=O)O)ccc1O [MECLAN]
IC50 ([1]; fluorescent label: DsRed): < 9.85 µM | IC50 ([1]; fluorescent label: GFP): < 9.85 µM | IC50 ([2]; fluorescent label: DsRed): < 9.85 µM | IC50 ([2]; fluorescent label: GFP): < 9.85 µM

C[C@H]1c2cccc(O)c2C(=O)C2=C(O)[C@]3(O)C(=O)C(C(N)=O)=C(O)[C@@H](N(C)C)[C@@H]3[C@@H](O)[C@@H]21 [Doxycycline hydrochloride]
IC50 ([1]; fluorescent label: DsRed): < 9.85 µM | IC50 ([1]; fluorescent label: GFP): < 9.85 µM | IC50 ([2]; fluorescent label: DsRed): < 9.85 µM | IC50 ([2]; fluorescent label: GFP): < 9.85 µM

C[C@@H](O)[C@H]1C(=O)N2C(C(=O)OCOC(=O)C(C)(C)C)=C(SC3CN(C4=NCCS4)C3)[C@H](C)[C@H]12 [Tebipenem pivoxil (L-084)]
IC50 ([1]; fluorescent label: DsRed): < 0.498 µM | IC50 ([1]; fluorescent label: GFP): < 0.498 µM | IC50 ([2]; fluorescent label: DsRed): 1.76 µM | IC50 ([2]; fluorescent label: GFP): 1.77 µM

From the supplement of paper PMC7695840
